Test results reported in patent US20240041042A1, “1-(PYRIDYL)-5-AZINYLPYRAZOLE DERIVATIVES, AND THEIR USE FOR CONTROL OF UNDESIRED PLANT GROWTH” (Bayer Aktiengesellschaft, priority 2020, published 2024).
Like-named read-outs stand apart in the source and are kept apart here.

Assays:
Assay type in all cases: in vivo
[1] = test system: Avena fatua (AVEFA); assay: Pre-emergence herbicidal action against AVEFA; settings: visual scoring after about 3 weeks vs untreated controls
In short: (§1)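 Seeds sown in pots and covered with soil; WP or EC formulations sprayed onto the soil surface at 600 l/ha water with 0.5% additive, at 320 g/ha or lower. Greenhouse growth for about 3 weeks, then visual scoring as % effect against untreated controls (100% = plants dead).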

[2] = test system: Setaria viridis (SETVI); assay: Post-emergence herbicidal action against SETVI
In short: (§2)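 Post-emergence greenhouse spray, one-leaf stage, 600 l/ha water plus 0.5% additive; WP or EC formulations; application rates 320 g/ha or lower. Visual % damage vs untreated controls at ~3 weeks.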

[3] = test system: Verconica persica (VERPE); assay: Post-emergence herbicidal action against VERPE
In short: as §2

[4] = test system: Alopecurus myosuroides (ALOMY); assay: Post-emergence herbicidal action against ALOMY; settings: visual rating about 3 weeks after treatment vs untreated controls (100% = plants have died, 0% = like control plants)
In short: as §2

[5] = test system: Lolium rigidum (LOLRI); assay: Post-emergence herbicidal action against LOLRI
In short: as §2

[6] = test system: Setaria viridis (SETVI); assay: Pre-emergence herbicidal action against SETVI
In short: as §1

[7] = test system: Alopecurus myosuroides (ALOMY); assay: Pre-emergence herbicidal action against ALOMY; settings: scored visually after about 3 weeks, 100% = plants have died
In short: as §1

[8] = test system: Viola tricolor (VIOTR); assay: Pre-emergence herbicidal action against VIOTR
In short: as §1

[9] = test system: Pharbitis purpurea (PHBPU); assay: Pre-emergence herbicidal action against PHBPU
In short: as §1

[10] = test system: Polygonum convolvulus (POLCO); assay: Post-emergence herbicidal action against POLCO; settings: dosage 80 g/ha
In short: as §2

[11] = test system: Amaranthus retroflexus (AMARE); assay: Post-emergence herbicidal action against AMARE
In short: as §2

[12] = test system: Abutilon theophrasti (ABUTH); assay: Pre-emergence herbicidal action against ABUTH; settings: Dosage column 320 g/ha (title prints 3200 g/ha); scored visually after about 3 weeks; 100% = plants have died
In short: as §1

[13] = test system: Pharbitis purpurea (PHBPU); assay: Post-emergence herbicidal action against PHBPU
In short: as §2

[14] = test system: Amaranthus retroflexus (AMARE); assay: Pre-emergence herbicidal action against AMARE; settings: visual scoring after about 3 weeks vs untreated controls
In short: as §1

[15] = test system: Lolium rigidum (LOLRI); assay: Pre-emergence herbicidal action against LOLRI
In short: as §1

[16] = test system: Oryza sativa (ORYSA); settings: crop plant compatibility
In short: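 Visual rating (% effect vs. untreated plants; 100% = plant death) made about 3 weeks after treatment. Plants had been sprayed at one-leaf stage, 2–3 weeks post-sowing, with aqueous WP/EC preparations containing 0.5% additive, 600 l/ha water volume; a, b, c mark dose levels.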

[17] = test system: Verconica persica (VERPE); assay: Pre-emergence herbicidal action against VERPE
In short: as §1

[18] = test system: Abutilon theophrasti (ABUTH); assay: Post-emergence herbicidal action against ABUTH; settings: 80 g/ha, visual rating about 3 weeks after treatment vs untreated controls (100% = plants have died, 0% = like control plants)
In short: as §2

[19] = test system: Echinochloa crus-galli (ECHCG); assay: Pre-emergence herbicidal action against ECHCG
In short: as §1

[20] = test system: Avena fatua (AVEFA); assay: Post-emergence herbicidal action against AVEFA; settings: visual rating about 3 weeks after treatment
In short: as §2

[21] = test system: Polygonum convolvulus (POLCO); assay: Pre-emergence herbicidal action against POLCO
In short: as §1

[22] = test system: Matricaria inodora (MATIN); assay: Pre-emergence herbicidal action against MATIN
In short: as §1

[23] = test system: Echinochloa crus-galli (ECHCG); assay: Post-emergence herbicidal action against ECHCG
In short: as §2

[24] = test system: Viola tricolor (VIOTR); assay: Post-emergence herbicidal action against VIOTR
In short: as §2

[25] = test system: Matricaria inodora (MATIN); assay: Post-emergence herbicidal action against MATIN
In short: as §2

[26] = 80 g/ha, visual rating about 3 weeks after treatment vs untreated controls (100% = plants have died, 0% = like control plants)
[27] = 80 g/ha, effect in comparison to untreated controls

Row | Compound | Pre-emergence action against AVEFA in % ([1]; 320 g/ha) [%] | Post-emergence action against SETVI in % ([2]; dosage 80 g/ha) [%] | Post-emergence action against VERPE in % ([3]; dosage 80 g/ha) [%] | Post-emergence action against ALOMY in % ([4]; 80 g/ha) [%] | Pre-emergence action against SETVI in % ([6]; dosage 320 g/ha) [%] | Pre-emergence action against ALOMY ([7]; 80 g/ha) [%] | Pre-emergence action against ALOMY ([7]; 320 g/ha) [%] | Pre-emergence action against VIOTR in % ([8]; 320 g/ha, Viola tricolor) [%] | Pre-emergence action against VIOTR in % ([8]; dosage 80 g/ha) [%] | Pre-emergence action against PHBPU in % ([9]; dosage 80 g/ha) [%] | Pre-emergence action against PHBPU in % ([9]; dosage 320 g/ha) [%] | Pre-emergence action against ABUTH [12] [%] | Pre-emergence action against AMARE in % ([14]; 80 g/ha) [%] | Pre-emergence action against AMARE in % ([14]; 320 g/ha) [%] | Pre-emergence action against VERPE in % ([17]; dosage 320 g/ha) [%] | Pre-emergence action against ECHCG in % ([19]; dosage 80 g/ha) [%] | Pre-emergence action against ECHCG in % ([19]; dosage 320 g/ha) [%] | Pre-emergence action against POLCO in % ([21]; dosage 320 g/ha) [%] | Pre-emergence action against MATIN in % ([22]; dosage 320 g/ha) [%] | Post-emergence action against ECHCG in % ([23]; dosage 80 g/ha) [%] | other results
1 | O=C(O)COc1nn(-c2ccccn2)c(-c2cncc(F)c2)c1Br [Example I-84] | 90 | 80 | 80 | 80 | 100 | 80 | 100 | 100 | 90 | 90 | 90 | 80 | 80 | 100 | 100 | 80 | 100 | 90 | 90 | 80 | Pre-emergence action against AVEFA in % ([1]; 80 g/ha): 80%; Post-emergence action against LOLRI in % ([5]; dosage 80 g/ha): 90%; Post-emergence action against POLCO in % [10]: 90%; Post-emergence action against AMARE in % [11, 26]: 90%; Post-emergence action against PHBPU in % ([13]; dosage 80 g/ha): 90%; Pre-emergence action against LOLRI in % ([15]; dosage 80 g/ha): 90%; Pre-emergence action against LOLRI in % ([15]; dosage 320 g/ha): 100%; Post-emergence action against ORYSA in % ([16]; 20 g/ha, effect vs untreated controls): 0%; Post-emergence action against ORYSA in % [16, 27]: 10%; Pre-emergence action against VERPE in % ([17]; dosage 80 g/ha): 90%; Post-emergence action against ABUTH in % [18]: 80%; Post-emergence action against AVEFA in % ([20]; 80 g/ha): 80%; Pre-emergence action against MATIN in % ([22]; dosage 80 g/ha): 90%
2 | CCOC(=O)COc1nn(-c2ncccc2C)c(-c2cncc(F)c2)c1Br [Example I-211] | 90 | 80 | 80 | 80 | 100 | 80 | 100 | 100 | 90 | 90 | 90 | 80 | 100 | 100 | 100 | 90 | 100 | 90 | 90 | 80 | Post-emergence action against SETVI in % ([2]; dosage 320 g/ha): 80%; Post-emergence action against VERPE in % ([3]; 320 g/ha, VERPE): 90%; Post-emergence action against ALOMY in % ([4]; 320 g/ha): 90%; Post-emergence action against LOLRI in % ([5]; dosage 320 g/ha): 80%; Pre-emergence action against SETVI in % ([6]; dosage 80 g/ha): 90%; Post-emergence action against VIOTR in % ([24]; 80 g/ha): 80%; Post-emergence action against VIOTR in % ([24]; 320 g/ha): 90%; Post-emergence action against PHBPU in % ([13]; dosage 80 g/ha): 90%; Post-emergence action against PHBPU in % ([13]; dosage 320 g/ha): 100%; Pre-emergence action against LOLRI in % ([15]; dosage 320 g/ha): 80%; Pre-emergence action against POLCO in % ([21]; dosage 80 g/ha): 90%; Post-emergence action against MATIN in % ([25]; dosage 80 g/ha): 80%; Post-emergence action against MATIN in % ([25]; dosage 320 g/ha): 80%; Pre-emergence action against MATIN in % ([22]; dosage 80 g/ha): 90%; Post-emergence action against ECHCG in % ([23]; dosage 320 g/ha): 80%
3 | Cc1cccnc1-n1nc(OCC(=O)O)c(Br)c1-c1cncc(F)c1 [Example I-204] | 80 | 90 | 90 | 90 | 100 | 90 | 100 | 100 | 100 | 90 | 90 | 80 | 90 | 100 | 100 | 90 | 100 | 90 | 90 | 80 | Post-emergence action against SETVI in % ([2]; dosage 320 g/ha): 90%; Post-emergence action against VERPE in % ([3]; 320 g/ha, VERPE): 90%; Post-emergence action against ALOMY in % ([4]; 320 g/ha): 90%; Pre-emergence action against SETVI in % ([6]; dosage 80 g/ha): 90%; Post-emergence action against AMARE in % [11, 26]: 80%; Post-emergence action against AMARE in % ([11]; 320 g/ha, visual rating about 3 weeks after treatment): 80%; Post-emergence action against VIOTR in % ([24]; 80 g/ha): 80%; Post-emergence action against VIOTR in % ([24]; 320 g/ha): 80%; Post-emergence action against PHBPU in % ([13]; dosage 320 g/ha): 80%; Post-emergence action against ORYSA in % [16, 27]: 0%; Post-emergence action against AVEFA in % ([20]; 320 g/ha): 80%; Pre-emergence action against POLCO in % ([21]; dosage 80 g/ha): 90%; Post-emergence action against MATIN in % ([25]; dosage 320 g/ha): 80%; Post-emergence action against ECHCG in % ([23]; dosage 320 g/ha): 80%
